Results published in patent publication US20090270469A1, “SUBSTITUTED OXAZOLIDINONES” (AUSPEX PHARMACEUTICALS, INC., priority 2008, published 2009).

What was measured:
human liver microsomes = experiment: In vitro human liver microsomal (HLM) stability assay; assay type: in vitro ADME; details: human liver microsomes 1 mg/mL, 1 μM compound, 37° C., vs non-isotopically enriched drug
Experimental: Liver microsomal stability assays were conducted at 1 mg per mL liver microsome protein with an NADPH-generating system in 2% NaHCO3 (2.2 mM NADPH, 25.6 mM glucose 6-phosphate, 6 units per mL glucose 6-phosphate dehydrogenase and 3.3 mM MgCl2). Test compounds were prepared as solutions in 20% acetonitrile-water. These solutions were added to the assay mixture (final assay concentration 1 μM) and incubated at 37° C. Final concentration of acetonitrile in the assay should be <1%. Aliquots (50 μL) were collected at the these timpoints: […], and 1 hours, and diluted with ice cold acetonitrile (200 μL) to stop the reactions. Samples were centrifuged at 12,000 RPM for 10 minutes to precipitate proteins. Supernatants were transferred to micro centrifuge tubes and stored for LC/MS/MS analysis of the degradation half-life of the test compounds.
Results of in vitro Human Liver Microsomal (HLM) Stability Assay

[1] = 400 mg oral dose under fasted conditions; cited from earlier work

| % increase of HLM degradation half-life, bin 0%-50% (human liver microsomes) | SMILES | also measured |
| --- | --- | --- |
| – | Cc1cc(C)cc(OCC2CNC(=O)O2)c1 (centres unmarked) [Example 1, 5-[(3,5-dimethylphenoxy)methyl]oxazolidin-2-one] | % increase of HLM degradation half-life, bin −25%-0% (human liver microsomes): + (−25%-0%); terminal half-life [1]: 9.0 ± 4.8 h; time of peak plasma concentrations [1]: approximately 3 hours |
| + (0%-50%) | [2H]C([2H])([2H])c1cc(OCC2CNC(=O)O2)cc(C([2H])([2H])[2H])c1 (centres unmarked) [Example 2, 5-[(3,5-dimethyl-d6-phenoxy)methyl]oxazolidin-2-one] | – |
| + (0%-50%) | [2H]C([2H])(Oc1cc(C)cc(C)c1)C1CNC(=O)O1 (centres unmarked) [Example 3, 5-[(3,5-dimethyl-phenoxy)methyl-d2]oxazolidin-2-one] | – |
| + (0%-50%) | [2H]C([2H])([2H])c1cc(OC([2H])([2H])C2CNC(=O)O2)cc(C([2H])([2H])[2H])c1 (centres unmarked) [Example 4, 5-[(3,5-Dimethyl-d6-phenoxy)methyl-d2]oxazolidin-2-one] | – |
| + (0%-50%) | [2H]C1([2H])NC(=O)OC1([2H])C([2H])([2H])Oc1cc(C)cc(C)c1 (centres unmarked) [Example 5, 5-[(3,5-Dimethylphenoxy)methyl-d2]oxazolidin-4,4,5-d3-2-one] | – |
| + (0%-50%) | [2H]C([2H])([2H])c1cc(OC([2H])([2H])C2([2H])OC(=O)NC2([2H])[2H])cc(C([2H])([2H])[2H])c1 (centres unmarked) [Example 6, 5-[(3,5-Dimethyl-d6-phenoxy)methyl-d2]oxazolidin-4,4,5-d3-2-one] | – |
